Measured values: publication PMC8501045, “Addressing MRSA infection and antibacterial resistance with peptoid polymers” (Nature Communications, 2021)
≈ marks a conversion by molar mass, not a printed value. Where “and” joins values, the source holds several entries; their conditions need not be identical. Equal entries are not always repeated. Where two headings read alike, the source gives them in different places.

Experiments:
L. monocytogenes 1001 = assay: MIC assay, clinical isolate; format: cell-based, Listeria monocytogene; conditions: Listeria monocytogenes
Experimental: (§1) MRSA (S. aureus Mu50, S. aureus Newman, S. aureus USA400, S. aureus USA300 LAC, S. aureus USA300) were obtained from Shanghai Institute of Materia Medica, Chinese Academy of Sciences. All clinically isolated Gram-positive bacteria used in this study were isolated from patients with various infections, different ages and sexes in the Shanghai Ruijin Rehabilitation Hospital. All strains were cultured in Luria-Bertani (LB) medium at 37 °C before use.
(§2) Bacteria were cultured in LB medium at 37 °C for 10 h, and then the bacterial suspension was diluted in Mueller–Hinton (MH) medium to a cell density of 2 × 10^5 colony forming units (CFU)/mL as the working suspension. The poly(Naeg)20 was serially diluted by MH medium in a 96-well plate, and an equal volume of bacterial suspension was added into each well. The final concentration of the poly(Naeg)20 was ranging from 200 to 1.56 μg/mL, and the plates were incubated at 37 °C for 9 h. Wells with inoculum and no polymer were used as the positive control; wells with only MH medium were used as the blank. The optical density (OD) in each well was measured on a Molecular Devices SpectraMax M2 precision microplate reader. The percentage of bacteria growth was calculated from1 %cellgrowth=A600polymer-A600blank/A600control-A600blank×100
(§3) The test was independently repeated at least three times.

S. haemolyticus 1107 = assay: MIC assay, clinical isolate; format: cell-based; conditions: Staphylococcus haemolyticus; clinical isolate S. haemolyticus 1107; read-out: MIC
Experimental: as §1, §2, §3

S. aureus 2902 = assay: MIC assay, clinical isolate; format: cell-based; conditions: Staphylococcus aureus; clinical isolate S. aureus 2902; read-out: MIC
Experimental: as §1, §2, §3

E. faecalis 2305 = assay: MIC assay, clinical isolate; format: cell-based; conditions: Enterococcus faecalis
Experimental: as §1, §2, §3

E. faecalis 0609 = assay: MIC assay, clinical isolate; format: cell-based; conditions: Enterococcus faecalis
Experimental: as §1, §2, §3

E. faecium 2504 = assay: MIC assay, clinical isolate; format: cell-based; conditions: Enterococcus faecium; clinical isolate E. faecium 2504; read-out: MIC
Experimental: as §1, §2, §3

S. epidermidis 0501 = assay: MIC assay, clinical isolate; format: cell-based; conditions: Staphylococcus epidermidis; clinical isolate S. epidermidis 0501; read-out: MIC
Experimental: as §1, §2, §3

E. faecium 0502 = assay: MIC assay, clinical isolate; format: cell-based; conditions: Enterococcus faecium; clinical isolate E. faecium 0502; read-out: MIC
Experimental: as §1, §2, §3

S. epidermidis 9397 = assay: MIC assay, clinical isolate; format: cell-based; conditions: Staphylococcus epidermidis; clinical isolate S. epidermidis 9397; read-out: MIC
Experimental: as §1, §2, §3

E. faecium 1205 = assay: MIC assay, clinical isolate; format: cell-based; conditions: Enterococcus faecium; clinical isolate E. faecium 1205; read-out: MIC
Experimental: as §1, §2, §3

S. aureus 2802 = assay: MIC assay, clinical isolate; format: cell-based; conditions: Staphylococcus aureus; clinical isolate S. aureus 2802; read-out: MIC
Experimental: as §1, §2, §3

E. faecium 0609 = assay: MIC assay, clinical isolate; format: cell-based; conditions: Enterococcus faecium; clinical isolate E. faecium 0609; read-out: MIC
Experimental: as §1, §2, §3

S. aureus 2904 = assay: MIC assay, clinical isolate; format: cell-based; conditions: Staphylococcus aureus; clinical isolate S. aureus 2904; read-out: MIC
Experimental: as §1, §2, §3

S. haemolyticus 0202 = assay: MIC assay, clinical isolate; format: cell-based; conditions: Staphylococcus haemolyticus; clinical isolate S. haemolyticus 0202; read-out: MIC
Experimental: as §1, §2, §3

E. faecium 0610 = assay: MIC assay, clinical isolate; format: cell-based; conditions: Enterococcus faecium; clinical isolate E. faecium 0610; read-out: MIC
Experimental: as §1, §2, §3

S. haemolyticus 1303 = assay: MIC assay, clinical isolate; format: cell-based; conditions: Staphylococcus haemolyticus; clinical isolate S. haemolyticus 1303; read-out: MIC
Experimental: as §1, §2, §3

S. agalactiae 0613 = assay: MIC assay, clinical isolate; format: cell-based; conditions: Streptococcus agalactiae; clinical isolate S. agalactiae 0613; read-out: MIC
Experimental: as §1, §2, §3

S. aureus 2202 = assay: MIC assay, clinical isolate; format: cell-based; conditions: Staphylococcus aureus; clinical isolate S. aureus 2202; read-out: MIC
Experimental: as §1, §2, §3

[1] = tested on: S. aureus USA300 biofilm formation; assay: Inhibition study on biofilm formation; format: cell-based, Staphylococcus aureus
Experimental: The plate was incubated at 37 °C for 24 h, and then the culture medium was removed, washed with PBS once, followed by adding 100 µL MTT solution (0.5 mg/mL) into the corresponding well. After further incubation at 37 °C for 4 h in the dark, the MTT solution was removed. An aliquot of 100 μL DMSO was added to each well to solubilize the purple solid and then the OD value was collected at 570 nm on a microplate reader. Wells containing inoculum and without antibacterial agents were used as the positive control; wells containing only MH medium were used as the blank. The percentage of surviving cells within biofilm was calculated from4 %cellviability=A570polymer-A570blank/A570control-A570blank×100
as §3

S. aureus ATCC6538 [2] = format: cell-based, Staphylococcus aureus; conditions: after 375 passages
Experimental: The antimicrobial-resistance test was conducted according to the previously reported method with slight modification. […] An aliquot of 2.5 μL of the mixture was sampled and diluted 400-fold in LB medium for a new cell-drug incubation cycle. The above cycle was repeated every 24 h. […] Generation of bacteria growth was calculated from incubating time and bacteria growth kinetics described below.

[3] = tested on: S. aureus USA300 mature biofilm; assay: Activity against mature biofilm; format: cell-based, Staphylococcus aureus; conditions: for Biofilm survival(%): norfloxacin, r4-r9 = 64, 128, 256, 512, 1024, 2048 MIC
Experimental: The plate was incubated at 37 °C for 24 h to allow biofilm formation. […] Then MTT assay was used to determine the biofilm viability. Wells containing inoculum and without antibacterial agents were used as the positive control; wells containing only MH medium were used as the blank. The percentage of surviving cells within biofilm was calculated from5 %cellviability=A570polymer-A570blank/A570control-A570blank×100
as §3

S. aureus ATCC6538 [4] = assay: Bacterial killing kinetics; format: cell-based, Staphylococcus aureus; conditions: 2×MBC (Figure S40)
[5] = clinical isolate L. monocytogenes 1001, read-out: MIC
[6] = clinical isolate E. faecalis 2305, read-out: MIC

SMILES	MIC (L. monocytogenes 1001; [5]) [µg/mL]	MIC (S. haemolyticus 1107) [µg/mL]	MIC (S. aureus 2902) [µg/mL]	MIC (E. faecalis 0609; 0609) [µg/mL]	MIC (E. faecium 2504) [µg/mL]	MIC (S. epidermidis 0501) [µg/mL]	MIC (E. faecium 0502) [µg/mL]	MIC (S. epidermidis 9397) [µg/mL]	MIC (E. faecium 1205) [µg/mL]	MIC (S. aureus 2802) [µg/mL]	MIC (E. faecium 0609) [µg/mL]	MIC (S. aureus 2904) [µg/mL]	MIC (S. haemolyticus 0202) [µg/mL]	MIC (E. faecium 0610) [µg/mL]	MIC (S. haemolyticus 1303) [µg/mL]	MIC (S. agalactiae 0613) [µg/mL]	MIC (S. aureus 2202) [µg/mL]	MIC (E. faecalis 2305; [6]) [µg/mL]	time to kill 90% of S. aureus (S. aureus ATCC6538 [4]) [h]	other results
CC1(C)S[C@@H]2[C@H](NC(=O)[C@H](N)c3ccccc3)C(=O)N2[C@H]1C(=O)O [Ampicillin]	1.56 (≈ 4.46 µM)	> 200	25 (≈ 71.5 µM)	3.13 (≈ 8.96 µM)	100 (≈ 286 µM)	6.25 (≈ 17.9 µM)	> 200	0.39 (≈ 1.12 µM)	> 200	25 (≈ 71.5 µM)	> 200	25 (≈ 71.5 µM)	200 (≈ 572 µM)	> 200	200 (≈ 572 µM)	0.39 (≈ 1.12 µM)	1.56 (≈ 4.46 µM)			MIC (E. faecalis 2305; 2305): 12.5 µg/mL (≈ 35.8 µM)
COc1cccc(OC)c1C(=O)N[C@@H]1C(=O)N2[C@@H]1SC(C)(C)[C@@H]2C(=O)O [Methicillin]	25 (≈ 65.7 µM)	> 200	12.5 (≈ 32.9 µM)		> 200	12.5 (≈ 32.9 µM)	> 200	1.56 (≈ 4.1 µM)	> 200	6.25 (≈ 16.4 µM)	> 200	6.25 (≈ 16.4 µM)	200 (≈ 526 µM)	> 200	> 200	1.56 (≈ 4.1 µM)	3.13 (≈ 8.23 µM)	> 200		MIC (E. faecalis 0609; clinical isolate E. faecalis 0609, read-out: MIC): 50 µg/mL (≈ 131 µM)
CCn1cc(C(=O)O)c(=O)c2cc(F)c(N3CCNCC3)cc21 [Norfloxacin]		100 (≈ 313 µM)	25 (≈ 78.3 µM)	1.56 (≈ 4.89 µM)	200 (≈ 626 µM)	0.2 (≈ 0.626 µM)	100 (≈ 313 µM)	0.2 (≈ 0.626 µM)	100 (≈ 313 µM)	200 (≈ 626 µM)	> 200	200 (≈ 626 µM)	100 (≈ 313 µM)	200 (≈ 626 µM)	25 (≈ 78.3 µM)	25 (≈ 78.3 µM)	50 (≈ 157 µM)	25 (≈ 78.3 µM)	2 to 3	concentration required to inhibit the formation of S. aureus biofilm [1]: 64 × MIC; increase of MBC (S. aureus ATCC6538 [2]): 1024 times; MIC (L. monocytogenes 1001; 1001): 1.56 µg/mL (≈ 4.89 µM); concentration that eradicates mature biofilms of S. aureus [3]: > 2048 × MIC; Biofilm survival(%) ([3]; replicate 1): 91.6463% and 85.7695% and 83.8544% and 89.6297% and 72.4394% and 55.1024%; Biofilm survival(%) ([3]; replicate 2): 89.0013% and 75.6713% and 82.9402% and 81.0138% and 70.6748% and 61.6339%; Biofilm survival(%) ([3]; replicate 3): 91.3528% and 81.8867% and 88.4821% and 86.774% and 64.2036% and 56.0543%
C[C@H]1COc2c(N3CCN(C)CC3)c(F)cc3c(=O)c(C(=O)O)cn1c23 [levofloxacin]																			2 to 3	
